Experimental data reported in ChEMBL document CHEMBL1142398, “Chemical stability of the peroxide bond enables diversified synthesis of potent tetraoxane antimalarials” (J Med Chem, 2008).

How the values were obtained:
Plasmodium falciparum [1] = experiment: microbe, parasite or virus in culture; details: D6
Description: Antimalarial activity against Plasmodium falciparum D6

Plasmodium falciparum [2] = experiment: microbe, parasite or virus in culture; details: W2
Description: Antimalarial activity against Plasmodium falciparum W2

[3] = Metabolic stability assessed as half life in mouse liver microsomes; type: ADME, Microsome
[4] = Metabolic stability assessed as half life in human liver microsomes; type: ADME, Microsome
Plasmodium falciparum [5] = experiment: microbe, parasite or virus in culture; details: TM91C235
Description: Antimalarial activity against multidrug-resistant Plasmodium falciparum TM91C235

Plasmodium berghei [6] = experiment: Antimalarial activity against Plasmodium berghei KBG173 infected CD1 mice (Mus musculus) at 300 mg/kg/day subcutaneous dose as survival time after 3-5 days; type: functional
Plasmodium berghei [7] = experiment: Antimalarial activity against Plasmodium berghei KBG173 infected CD1 mice (Mus musculus) at 150 mg/kg/day subcutaneous dose as survival time after 3-5 days; type: functional
Plasmodium berghei [8] = experiment: Antimalarial activity against Plasmodium berghei KBG173 infected CD1 mice (Mus musculus) at 37.5 mg/kg/day subcutaneous dose as survival time after 3-5 days; type: functional
Plasmodium berghei [9] = experiment: Antimalarial activity against Plasmodium berghei KBG173 infected CD1 mice (Mus musculus) at 9.3 mg/kg/day subcutaneous dose as survival time after 3-5 days; type: functional
Plasmodium berghei [10] = experiment: Antimalarial activity against Plasmodium berghei KBG173 infected CD1 mice (Mus musculus) on subcutaneous dose after 3-5 days; type: functional

CC(=O)O[C@H]1C[C@H]2[C@@H]([C@H](OC(C)=O)C[C@@H]3CC4(CC[C@@]32C)OOC2(CCCCC2)OO4)[C@@H]2CC[C@H]([C@H](C)CCC(=O)O)[C@@]12C
IC50 (Plasmodium falciparum [1]): 30.6 nM
IC50 (Plasmodium falciparum [2]): 19.2 nM

CC(=O)O[C@H]1C[C@H]2[C@@H]([C@H](OC(C)=O)C[C@@H]3CC4(CC[C@@]32C)OOC2(CCCCC2)OO4)[C@@H]2CC[C@H]([C@H](C)CCCNCCN(C)C)[C@@]12C
IC50 (Plasmodium falciparum [1]): 46.8 nM
IC90 (Plasmodium falciparum [1]): 110 nM
IC50 (Plasmodium falciparum [2]): 18.5 nM
IC90 (Plasmodium falciparum [2]): 65.4 nM
half-life [3]: > 60 min
half-life [4]: > 60 min
IC50 (Plasmodium falciparum [5]): 49.7 nM
IC90 (Plasmodium falciparum [5]): 88.1 nM

CCCNC(=O)C1CCC2(CC1)OOC1(CCCCC1)OO2
IC50 (Plasmodium falciparum [1]): 19.3 nM
IC90 (Plasmodium falciparum [1]): 49.2 nM
IC50 (Plasmodium falciparum [2]): 22 nM
IC90 (Plasmodium falciparum [2]): 44.5 nM
IC50 (Plasmodium falciparum [5]): 25.3 nM
IC90 (Plasmodium falciparum [5]): 53.9 nM

C1CCC(NCC2CCC3(CC2)OOC2(CCCCC2)OO3)CC1
IC50 (Plasmodium falciparum [1]): 11.2 nM
IC90 (Plasmodium falciparum [1]): 14 nM
IC50 (Plasmodium falciparum [2]): 6.17 nM
IC90 (Plasmodium falciparum [2]): 17.7 nM
half-life [3]: 43.9 min
half-life [4]: 15.9 min
Survival (Plasmodium berghei [6]): >31 days
Survival (Plasmodium berghei [7]): 29 days
Survival (Plasmodium berghei [8]): 22.6 days
IC50 (Plasmodium falciparum [5]): 10.8 nM
IC90 (Plasmodium falciparum [5]): 13.9 nM
Survival (Plasmodium berghei [9]): 13.4 days
MCD (Plasmodium berghei [10]): <=37.5 mg/kg/day

CC(C)NCC1CCC2(CC1)OOC1(CCCCC1)OO2
IC50 (Plasmodium falciparum [1]): 9.4 nM
IC90 (Plasmodium falciparum [1]): 14.5 nM
IC50 (Plasmodium falciparum [2]): 7.54 nM
IC90 (Plasmodium falciparum [2]): 22.9 nM
half-life [3]: 9.9 min
half-life [4]: 38.7 min
Survival (Plasmodium berghei [6]): 23.2 days
Survival (Plasmodium berghei [7]): 23.6 days
Survival (Plasmodium berghei [8]): 18.2 days
IC50 (Plasmodium falciparum [5]): 9.27 nM
IC90 (Plasmodium falciparum [5]): 16.7 nM
Survival (Plasmodium berghei [9]): 11.8 days

c1ccc(CNCC2CCC3(CC2)OOC2(CCCCC2)OO3)cc1
IC50 (Plasmodium falciparum [1]): 13.8 nM
IC90 (Plasmodium falciparum [1]): 34.5 nM
IC50 (Plasmodium falciparum [2]): 8.19 nM
IC90 (Plasmodium falciparum [2]): 20.6 nM
half-life [3]: 3.5 min
half-life [4]: 42 min
IC50 (Plasmodium falciparum [5]): 13.9 nM
IC90 (Plasmodium falciparum [5]): 39.5 nM

OCC1CCC2(CC1)OOC1(CCCCC1)OO2
IC50 (Plasmodium falciparum [1]): 15.2 nM
IC90 (Plasmodium falciparum [1]): 22.5 nM
IC50 (Plasmodium falciparum [2]): 6.54 nM
IC90 (Plasmodium falciparum [2]): 11.6 nM
IC50 (Plasmodium falciparum [5]): 12.6 nM
IC90 (Plasmodium falciparum [5]): 23.7 nM

CCCNCCC[C@@H](C)[C@H]1CC[C@H]2[C@@H]3[C@H](OC(C)=O)C[C@@H]4CC5(CC[C@]4(C)[C@H]3C[C@H](OC(C)=O)[C@]12C)OOC1(CCCCC1)OO5
IC50 (Plasmodium falciparum [1]): 24.1 nM
IC90 (Plasmodium falciparum [1]): 49.3 nM
IC50 (Plasmodium falciparum [2]): 11.1 nM
IC90 (Plasmodium falciparum [2]): 26.9 nM
half-life [3]: > 60 min
half-life [4]: > 60 min
IC50 (Plasmodium falciparum [5]): 20.8 nM
IC90 (Plasmodium falciparum [5]): 73.9 nM

NCC1CCC2(CC1)OOC1(CCCCC1)OO2
IC50 (Plasmodium falciparum [1]): 12.8 nM
IC90 (Plasmodium falciparum [1]): 24.1 nM
IC50 (Plasmodium falciparum [2]): 7.79 nM
IC90 (Plasmodium falciparum [2]): 16 nM
Survival (Plasmodium berghei [6]): >31 days
Survival (Plasmodium berghei [7]): >31 days
Survival (Plasmodium berghei [8]): 24.6 days
IC50 (Plasmodium falciparum [5]): 19.8 nM
IC90 (Plasmodium falciparum [5]): 29 nM
Survival (Plasmodium berghei [9]): 16.6 days
MCD (Plasmodium berghei [10]): <=37.5 mg/kg/day

CC(=O)O[C@H]1C[C@H]2[C@@H]([C@H](OC(C)=O)C[C@@H]3CC4(CC[C@@]32C)OOC2(CCCCC2)OO4)[C@@H]2CC[C@H]([C@H](C)CCCO)[C@@]12C
IC50 (Plasmodium falciparum [1]): 15.6 nM
IC90 (Plasmodium falciparum [1]): 28.7 nM
IC50 (Plasmodium falciparum [2]): 9.77 nM
IC90 (Plasmodium falciparum [2]): 24.2 nM
IC50 (Plasmodium falciparum [5]): 18.1 nM
IC90 (Plasmodium falciparum [5]): 27.2 nM
